Legend:
[1] = biological target: T1, ER (Homo sapiens, UniProt P03372); experiment: Tumor cell (CTC/biopsy) pathway profile on antibody array: ER expression; assay type: in vivo; settings: Patient 4008 (High AIB1; ER+/PR+/ErbB2−), tumor cells on re-biopsy
T1 construct: pathways active in circulating tumor cells (CTCs) from blood or cancer cells obtained from a needle biopsy; endogenous in cells; host or cells: patient's circulating tumour cells or biopsy-derived breast cancer cells
Description: (§1) The incubation was for 2 hours at room temperature. • 5) Alternatively, the detection step utilized a biotin-conjugate of the monoclonal antibody recognizing phosphorylated EGFR. In these instances, after six washes an additional sequential step of incubation with streptavidin-HRP for 1 hour was included. • 6) Alternatively, the detection step utilized an oligonucleotide-mediated glucose oxidase (GO) conjugate of the anti-EGFR antibody.
(§2) In brief, the activation levels of different components of the ErbB and nuclear hormone receptor pathways in CTCs or biopsy-derived cancer cells can be determined in the presence or absence of different combinations of test therapeutic agents.

[2] = biological target: T2, ER (Ser 118) (Homo sapiens, UniProt P03372); experiment: Tumor cell pathway profile: ER (Ser 118) phosphorylation; assay type: in vivo; settings: Patient 4008 (High AIB1; ER+/PR+/ErbB2−), tumor cells on re-biopsy
T2 construct: pathways active in circulating tumor cells (CTCs) from blood or cancer cells obtained from a needle biopsy; endogenous in cells; host or cells: patient's circulating tumour cells or biopsy-derived breast cancer cells
T2 sequence (P03372 whole entry): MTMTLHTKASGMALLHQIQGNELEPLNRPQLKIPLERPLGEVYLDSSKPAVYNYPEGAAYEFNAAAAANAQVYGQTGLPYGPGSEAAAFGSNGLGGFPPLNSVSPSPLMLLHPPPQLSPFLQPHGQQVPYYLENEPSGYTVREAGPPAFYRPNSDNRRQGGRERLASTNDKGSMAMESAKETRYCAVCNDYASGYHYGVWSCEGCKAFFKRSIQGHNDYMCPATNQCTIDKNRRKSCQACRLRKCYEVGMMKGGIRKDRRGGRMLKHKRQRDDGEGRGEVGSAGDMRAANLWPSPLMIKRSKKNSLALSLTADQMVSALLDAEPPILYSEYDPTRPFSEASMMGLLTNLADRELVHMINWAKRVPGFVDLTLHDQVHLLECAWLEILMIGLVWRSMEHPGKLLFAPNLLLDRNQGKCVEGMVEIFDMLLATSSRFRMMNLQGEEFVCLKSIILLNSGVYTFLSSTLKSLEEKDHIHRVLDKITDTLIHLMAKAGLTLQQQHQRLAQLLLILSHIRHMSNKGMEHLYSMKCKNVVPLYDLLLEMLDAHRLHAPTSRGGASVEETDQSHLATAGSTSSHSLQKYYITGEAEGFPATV
Description: as §1, §2

[3] = biological target: T3, ER (Ser 167) (Homo sapiens, UniProt P03372); experiment: Tumor cell pathway profile: ER (Ser 167) phosphorylation; assay type: in vivo; settings: Patient 4008 (High AIB1; ER+/PR+/ErbB2−), tumor cells on re-biopsy
T3 construct: pathways active in circulating tumor cells (CTCs) from blood or cancer cells obtained from a needle biopsy; endogenous in cells; host or cells: patient's circulating tumour cells or biopsy-derived breast cancer cells
T3 sequence (P03372 whole entry): as above
Description: as §1, §2

[4] = biological target: T4, ER:AIB1 Complex (Homo sapiens, UniProt P03372); experiment: Tumor cell pathway profile: ER:AIB1 complex; assay type: in vivo; settings: Patient 4008 (High AIB1; ER+/PR+/ErbB2−), tumor cells on re-biopsy
T4 construct: pathways active in circulating tumor cells (CTCs) from blood or cancer cells obtained from a needle biopsy; endogenous in cells; host or cells: patient's circulating tumour cells or biopsy-derived breast cancer cells
T4 sequence (P03372 whole entry, one chain of several): as the sequence (P03372 whole entry) above
Description: as §1, §2

[5] = biological target: T5, ER:N-CoR Complex (Homo sapiens, UniProt P03372); experiment: Tumor cell pathway profile: ER:N-CoR complex; assay type: in vivo; settings: Patient 4008 (High AIB1; ER+/PR+/ErbB2−), tumor cells on re-biopsy
T5 construct: pathways active in circulating tumor cells (CTCs) from blood or cancer cells obtained from a needle biopsy; endogenous in cells; host or cells: patient's circulating tumour cells or biopsy-derived breast cancer cells
Description: as §1, §2

[6] = tested on: Progesterone Receptor; experiment: Tumor cell pathway profile: Progesterone Receptor; assay type: in vivo, human; settings: tumor cells on re-biopsy
Description: as §1
(§3) The exemplary patient profiles shown below in Tables 4-22 illustrate how an analysis of the pathways active in circulating tumor cells (CTCs) from blood or cancer cells obtained from a needle biopsy can be used to help physicians decide upon an effective course of treatment for a breast tumor, e.g., neoadjuvant treatment prior to surgery to reduce the size of the breast tumor or treatment in patients with locally recurrent or metastatic breast cancer. In brief, the activation levels of different components of the ErbB and nuclear hormone receptor pathways in CTCs or biopsy-derived cancer cells can be determined in the presence or absence of different combinations of test therapeutic agents.

[7] = tested on: IGF-1R; experiment: Tumor cell pathway profile: IGF-1R; assay type: in vivo, human; settings: tumor cells on re-biopsy
Description: as §1, §2

[8] = biological target: T6, ErbB1 (Homo sapiens, UniProt P00533); experiment: Tumor cell pathway profile: ErbB1; assay type: in vivo; settings: Patient 4008 (High AIB1; ER+/PR+/ErbB2−), tumor cells on re-biopsy
T6 construct: pathways active in circulating tumor cells (CTCs) from blood or cancer cells obtained from a needle biopsy; endogenous in cells; host or cells: patient's circulating tumour cells or biopsy-derived breast cancer cells
Description: as §1, §2

[9] = biological target: T7, ErbB2 (Homo sapiens, UniProt P04626); experiment: Tumor cell pathway profile: ErbB2; assay type: in vivo; settings: tumor cells on re-biopsy
T7 construct: pathways active in circulating tumor cells (CTCs) from blood or cancer cells obtained from a needle biopsy; endogenous in cells; host or cells: patient's circulating tumour cells or biopsy-derived breast cancer cells
T7 sequence (P04626 23-1255): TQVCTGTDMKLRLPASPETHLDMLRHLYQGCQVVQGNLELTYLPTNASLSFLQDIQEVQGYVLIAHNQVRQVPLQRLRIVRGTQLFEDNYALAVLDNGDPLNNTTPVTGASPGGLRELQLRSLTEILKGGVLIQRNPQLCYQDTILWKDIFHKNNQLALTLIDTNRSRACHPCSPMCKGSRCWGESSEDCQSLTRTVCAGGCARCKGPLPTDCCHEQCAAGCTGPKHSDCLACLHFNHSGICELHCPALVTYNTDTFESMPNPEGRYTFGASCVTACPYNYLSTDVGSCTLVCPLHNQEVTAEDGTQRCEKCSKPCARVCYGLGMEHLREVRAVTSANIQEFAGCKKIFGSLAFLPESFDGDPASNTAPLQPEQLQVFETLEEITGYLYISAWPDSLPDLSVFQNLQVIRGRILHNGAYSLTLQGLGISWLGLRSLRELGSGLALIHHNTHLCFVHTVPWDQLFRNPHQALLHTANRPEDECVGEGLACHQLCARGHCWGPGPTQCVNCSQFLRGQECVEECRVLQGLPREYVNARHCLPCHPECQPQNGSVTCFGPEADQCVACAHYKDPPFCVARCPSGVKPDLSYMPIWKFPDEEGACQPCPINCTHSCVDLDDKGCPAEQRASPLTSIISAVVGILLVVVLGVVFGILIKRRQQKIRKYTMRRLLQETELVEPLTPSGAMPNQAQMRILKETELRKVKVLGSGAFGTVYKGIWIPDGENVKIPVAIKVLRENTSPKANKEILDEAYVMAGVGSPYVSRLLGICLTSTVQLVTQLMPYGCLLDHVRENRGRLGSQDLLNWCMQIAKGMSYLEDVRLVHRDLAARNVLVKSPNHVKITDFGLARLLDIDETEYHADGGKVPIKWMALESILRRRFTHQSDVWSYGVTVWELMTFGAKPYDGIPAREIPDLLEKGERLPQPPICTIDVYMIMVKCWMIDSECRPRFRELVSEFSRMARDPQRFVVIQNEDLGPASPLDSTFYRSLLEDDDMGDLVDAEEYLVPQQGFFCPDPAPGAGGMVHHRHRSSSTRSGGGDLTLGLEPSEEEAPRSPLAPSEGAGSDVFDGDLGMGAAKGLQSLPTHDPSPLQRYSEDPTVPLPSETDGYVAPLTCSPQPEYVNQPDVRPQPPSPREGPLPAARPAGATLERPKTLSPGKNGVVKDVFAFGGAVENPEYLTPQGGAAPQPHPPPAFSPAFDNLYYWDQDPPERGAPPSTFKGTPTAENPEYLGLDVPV
Description: as §1, §2

[10] = tested on: ErbB3; experiment: Tumor cell pathway profile: ErbB3; assay type: in vivo, human; settings: tumor cells on re-biopsy
Description: as §1, §3

[11] = biological target: T8, ErbB4 (Homo sapiens, UniProt Q15303); experiment: Tumor cell pathway profile: ErbB4; assay type: in vivo; settings: tumor cells on re-biopsy
T8 construct: pathways active in circulating tumor cells (CTCs) from blood or cancer cells obtained from a needle biopsy; endogenous in cells; host or cells: patient's circulating tumour cells or biopsy-derived breast cancer cells
T8 sequence (Q15303 26-1308): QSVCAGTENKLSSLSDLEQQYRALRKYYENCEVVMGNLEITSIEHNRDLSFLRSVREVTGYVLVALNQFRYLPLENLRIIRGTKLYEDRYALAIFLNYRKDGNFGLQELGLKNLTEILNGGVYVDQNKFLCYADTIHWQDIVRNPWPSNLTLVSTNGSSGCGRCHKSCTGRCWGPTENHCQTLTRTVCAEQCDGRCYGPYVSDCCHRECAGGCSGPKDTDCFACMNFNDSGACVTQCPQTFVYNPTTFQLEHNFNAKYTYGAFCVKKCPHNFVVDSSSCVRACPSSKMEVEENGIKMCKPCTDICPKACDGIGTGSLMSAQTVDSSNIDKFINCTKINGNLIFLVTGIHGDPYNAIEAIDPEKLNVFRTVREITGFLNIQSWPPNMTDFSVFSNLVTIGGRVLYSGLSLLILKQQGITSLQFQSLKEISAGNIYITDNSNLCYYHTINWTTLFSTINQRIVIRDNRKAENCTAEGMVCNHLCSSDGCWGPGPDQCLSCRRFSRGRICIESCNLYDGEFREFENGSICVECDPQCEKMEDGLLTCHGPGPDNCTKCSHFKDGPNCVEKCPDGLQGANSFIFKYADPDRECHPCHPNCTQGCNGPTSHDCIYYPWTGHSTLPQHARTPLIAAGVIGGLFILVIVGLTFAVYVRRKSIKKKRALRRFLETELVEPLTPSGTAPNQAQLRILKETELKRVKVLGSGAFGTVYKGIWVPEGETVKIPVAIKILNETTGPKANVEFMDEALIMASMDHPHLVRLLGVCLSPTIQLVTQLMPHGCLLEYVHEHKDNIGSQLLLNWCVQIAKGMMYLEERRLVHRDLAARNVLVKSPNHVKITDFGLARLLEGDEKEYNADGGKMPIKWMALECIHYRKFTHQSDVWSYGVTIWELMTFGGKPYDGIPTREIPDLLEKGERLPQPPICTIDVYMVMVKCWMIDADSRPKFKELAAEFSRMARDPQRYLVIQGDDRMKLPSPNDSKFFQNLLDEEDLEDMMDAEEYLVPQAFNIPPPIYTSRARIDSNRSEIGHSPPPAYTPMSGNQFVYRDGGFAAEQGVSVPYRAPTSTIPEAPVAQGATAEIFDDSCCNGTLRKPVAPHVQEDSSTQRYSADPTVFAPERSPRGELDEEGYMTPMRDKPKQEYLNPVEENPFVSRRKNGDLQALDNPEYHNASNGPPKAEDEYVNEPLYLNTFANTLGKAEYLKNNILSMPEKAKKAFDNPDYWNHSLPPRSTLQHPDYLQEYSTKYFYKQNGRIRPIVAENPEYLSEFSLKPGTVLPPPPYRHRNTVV
Description: as §1, §2

[12] = tested on: Shc; experiment: Tumor cell pathway profile: Shc; assay type: in vivo, human; settings: tumor cells on re-biopsy
Description: as §1, §3

[13] = tested on: PI3K; experiment: Tumor cell pathway profile: PI3K; assay type: in vivo, human; settings: tumor cells on re-biopsy
Description: as §1, §2

[14] = tested on: Erk; experiment: Tumor cell pathway profile: Erk; assay type: in vivo, human; settings: tumor cells on re-biopsy
Description: as §1, §2

[15] = tested on: Rsk; experiment: Tumor cell pathway profile: Rsk; assay type: in vivo, human; settings: tumor cells on re-biopsy
Description: as §1, §2

[16] = tested on: Akt; experiment: Tumor cell pathway profile: Akt; assay type: in vivo, human; settings: tumor cells on re-biopsy
Description: as §1, §2

[17] = tested on: P70S6K; experiment: Tumor cell pathway profile: P70S6K; assay type: in vivo, human; settings: tumor cells on re-biopsy
Description: as §1, §2

[18] = tested on: Ki67; experiment: Tumor cell pathway profile: Ki67; assay type: in vivo, human; settings: tumor cells on re-biopsy
Description: as §1, §3

[19] = tested on: breast tumor; experiment: Response of breast cancer patient to therapy selected from pathway profile; assay type: in vivo, human
Description: as §3
In brief, the activation levels of different components of signal transduction pathways such as the ErbB receptor pathways in CTCs or biopsy-derived cancer cells can be determined in the presence or absence of different combinations of test therapeutic agents.

[20] = tested on: PTEN; experiment: Tumor cell pathway profile: PTEN; assay type: in vivo, human; settings: Patient 4001 (ER+/PR+/ErbB2−), tumor cells on re-biopsy
Description: as §1, §3

[21] = tested on: TOPO II; experiment: Tumor cell pathway profile: TOPO II; assay type: in vivo, human; settings: Patient 4001 (ER+/PR+/ErbB2−), tumor cells on re-biopsy
Description: as §1, §3

[22] = tested on: pHER-2; experiment: Multiplexed proximity assay, per-cell RTK activation in cell lines: pHER-2; assay type: cell-based; settings: for Per Cell-RTK Activation (RFU/cell) pHER2: stimulation with the ligand, calculated from number of cells required to detect EC20 (12000 RFU)
Description: SKBR3, MDA-MB-468, T47D, and BT474 cell lines were obtained from ATCC. Cells were grown in the following growth media in 100 mm tissue culture plates at 37° C. in 5% CO2: SKBR3—MacCoy's 5A medium with 10% FBS; MDA-MB-468—DMEM, 10% FBS; BT474—DMEM, 10% FBS; T47D—RPMI 1640, 10% FBS, 0.2 U/ml bovine insulin. Cells were harvested at 70-80% confluency with gentle detachment process (trypsin treatment+subsequent inactivation) and were subsequently counted and washed with 1×PBS. […] Subsequently, stimulated cells were washed with 1×PBS and then were lysed and kept on ice for 30 min.
Capture antibodies were diluted in 1×PBS with detergent. A contact microarray printer (Genetix) was utilized to print on 16 pad nitrocellulose FAST slides (Whatman). The spot diameter was approximately 175 μm and printed slides were kept in a desiccated chamber at 4° C.
Slides were incubated with blocking buffer for 1 hr and then washed 3× with TBST buffer. Cell lysates were then added onto each pad for overnight incubation at room temperature (RT). Upon the completion of the primary binding, lysates were aspirated and then each pad was washed several times with TBST. Then, secondary detector antibodies (conjugated with GO or HRP) were added to each pad for 2 hr at RT. Unbound secondary detector antibodies were removed by washing with TBST, and signal amplification buffer containing glucose and biotinylated tyramide was added to each pad for 15 min. After removing excess biotinylated tyramide, Alexa-647 conjugated strepavidin was added for the signal detection.
Quantitation was performed using Perkin Elmer ScanArray Express software and the data obtained was corrected for local and global background intensities. A GenePixArray List (GAL) file was used to provide descriptive name and identifier information and was incorporated into the image analysis output file. Signals from triplicate spots were averaged and data were normalized to correct for pad to pad variability. A nonlinear regression model was used for the quantitation of cell-equivalent amount for corresponding relative fluorescence unit (RFU) values. The data were fit to a five parameter Hill equation to generate the standard curves. Each curve was validated against known controls. A known number of cells was predicted for the appropriate dilution, corresponding to the curve with the highest slope at the intensity of the unknown sample.
Analytical specificity of the collaborative immunoassay format described herein was >99.99% based on a comparative study performed on multiple cell lines with various RTK levels. […] The RTK activation profile for T47D cells, which express some level of ErbB2 and ErbB3 but an extremely low amount of ErbB1, is shown in FIG. 22. The number of cells required to detect EC20 (12000 RFU) pHER-1 or pHER-2 were used to calculate per-cell RTK activation (RFU/cell) as shown in Table 43. When MB468 cells expressing an extremely low amount of HER-2 were used, having ˜1000 cells per reaction pad was not sufficient to achieve EC20, and this type of low or non-detectable signal in other cell lines was indicated as “ND” in Table 43. […] This collaborative immunoassay format ensures ultra-specificity while maintaining its sub-single cell level (10^4 to 10^5) molecular level assay sensitivity.

[23] = biological target: T9, pHER-1 (Homo sapiens, UniProt P00533); experiment: Multiplexed proximity assay, per-cell RTK activation in cell lines: pHER-1; assay type: cell-based; settings: stimulation with the ligand, calculated from number of cells required to detect EC20 (12000 RFU)
T9 construct: host or cells: SKBR3, MDA-MB-468, T47D, BT474
Description: Slides were incubated with blocking buffer for 1 hr and then washed 3× with TBST buffer. Cell lysates were then added onto each pad for overnight incubation at room temperature (RT). Upon the completion of the primary binding, lysates were aspirated and then each pad was washed several times with TBST. Then, secondary detector antibodies (conjugated with GO or HRP) were added to each pad for 2 hr at RT. […]
Quantitation was performed using Perkin Elmer ScanArray Express software and the data obtained was corrected for local and global background intensities. […] A nonlinear regression model was used for the quantitation of cell-equivalent amount for corresponding relative fluorescence unit (RFU) values. […]

[24] = tested on: p95ErbB2; settings: T47D cells, FIG. 17
Description: The slide is incubated for two hours at room temperature. • 4) After six washes with TBS-Tween, 80 μl of detection antibodies for the proximity assay diluted in TBS-Tween/2% BSA/1% FBS is added to the slides. The detection antibodies used are: (1) an anti-ErbB2 antibody specific for the intracellular domain of ErbB2 that is directly conjugated to glucose oxidase (GO); and (2) a monoclonal antibody recognizing phosphorylated ErbB2 that is directly conjugated to horseradish peroxidase (HRP). The incubation is for 2 hours at room temperature. • 5) For signal amplification, 80 μl of biotin-tyramide at 5 μg/ml is added and reacted for 15 minutes along with 50 mM glucose. The slide is washed six times with TBS-Tween, twice with 20% DMSO/TBS-Tween, and once with TBS. […] The slide is then washed twice, dried for 5 minutes, and scanned on a microarray scanner (Perkin-Elmer, Inc.). • 6) As a non-limiting example, slide 1 can report on total ErbB2 activation while slide 2 can report on truncated ErbB2 activation.
The slide is incubated for two hours at room temperature. • 4) After six washes with TBS-Tween, 80 μl of detection antibodies for the assay diluted in TBS-Tween/2% BSA/1% FBS is added to the slides. The detection antibody used is an anti-ErbB2 antibody specific for the intracellular domain of ErbB2 that is directly conjugated to HRP. […]

[25] = Patient 4008 (High AIB1; ER+/PR+/ErbB2−)

T1 sequence (P03372 whole entry): as the sequence (P03372 whole entry) above

C[C@]12CC[C@@H]3c4ccc(O)cc4C[C@@H](CCCCCCCCC[S+]([O-])CCCC(F)(F)C(F)(F)F)[C@H]3[C@@H]1CC[C@@H]2O (some centres unmarked) [Fulvestrant, fulvestrant]
ER: Treatment with Fulvestrant [1]: Low | ER (Ser 118): Treatment with Fulvestrant [2]: Weak | ER (Ser 167): Treatment with Fulvestrant [3]: Weak | ER: AIB1 Complex: Treatment with Fulvestrant [4]: Weak | ER: N-CoR Complex: Treatment with Fulvestrant [5]: Weak | Progesterone Receptor: Treatment with Fulvestrant [6, 25]: Low | IGF-1R: Treatment with Fulvestrant [7, 25]: Weak | ErbB1: Treatment with Fulvestrant [8]: Weak | ErbB2: Treatment with Fulvestrant [9, 25]: Weak | ErbB3: Treatment with Fulvestrant [10, 25]: Weak | ErbB4: Treatment with Fulvestrant [11, 25]: Weak | Shc: Treatment with Fulvestrant [12, 25]: Weak | PI3K: Treatment with Fulvestrant [13, 25]: Weak | Erk: Treatment with Fulvestrant [14, 25]: Weak | Rsk: Treatment with Fulvestrant [15, 25]: Weak | Akt: Treatment with Fulvestrant [16, 25]: Weak | P70S6K: Treatment with Fulvestrant [17, 25]: Weak | Ki67: Treatment with Fulvestrant [18, 25]: Weak | Patient response to treatment [19, 25]: responded

CC/C(=C(\c1ccccc1)c1ccc(OCCN(C)C)cc1)c1ccccc1 [Tamoxifen, tamoxifen]
Progesterone Receptor: Treatment with Tamoxifen ([6]; Patient 4001 (ER+/PR+/ErbB2−)): Medium | IGF-1R: Treatment with Tamoxifen ([7]; Patient 4001 (ER+/PR+/ErbB2−)): Weak | ErbB2: Treatment with Tamoxifen ([9]; Patient 4001 (ER+/PR+/ErbB2−)): Weak | ErbB3: Treatment with Tamoxifen ([10]; Patient 4001 (ER+/PR+/ErbB2−)): Weak | ErbB4: Treatment with Tamoxifen ([11]; Patient 4001 (ER+/PR+/ErbB2−)): Weak | PTEN: Treatment with Tamoxifen [20]: Medium | Shc: Treatment with Tamoxifen ([12]; Patient 4001 (ER+/PR+/ErbB2−)): Weak | PI3K: Treatment with Tamoxifen ([13]; Patient 4001 (ER+/PR+/ErbB2−)): Weak | Erk: Treatment with Tamoxifen ([14]; Patient 4001 (ER+/PR+/ErbB2−)): Weak | Rsk: Treatment with Tamoxifen ([15]; Patient 4001 (ER+/PR+/ErbB2−)): Weak | Akt: Treatment with Tamoxifen ([16]; Patient 4001 (ER+/PR+/ErbB2−)): Weak | P70S6K: Treatment with Tamoxifen ([17]; Patient 4001 (ER+/PR+/ErbB2−)): Weak | Ki67: Treatment with Tamoxifen ([18]; Patient 4001 (ER+/PR+/ErbB2−)): Weak | TOPO II: Treatment with Tamoxifen [21]: Medium | Patient response to treatment ([19]; Patient 4001 (ER+/PR+/ErbB2−), premenopausal, node negative): responded

EGF: epidermal growth factor, stimulatory growth factor
Per Cell-RTK Activation (RFU/cell) pHER2 ([22]; BT 474 cells): 1200 RFU/cell | pHER-2 ([22]; MDA MB 468 cells stimulated with EGF): do not show any detectable | Per Cell-RTK Activation (RFU/cell) pHER2 ([22]; SKBR3 cells): 1334 RFU/cell | Per Cell-RTK Activation (RFU/cell) pHER2 ([22]; T47D cells): 80 RFU/cell

heregulin
Per Cell-RTK Activation (RFU/cell) pHER1 ([23]; MD AMB 468 cells): 4000 RFU/cell | Per Cell-RTK Activation (RFU/cell) pHER1 ([23]; SKBR3 cells): 105 RFU/cell | Per Cell-RTK Activation (RFU/cell) pHER2 ([22]; BT 474 cells): 1200 RFU/cell | Per Cell-RTK Activation (RFU/cell) pHER2 ([22]; SKBR3 cells): 353 RFU/cell | Per Cell-RTK Activation (RFU/cell) pHER2 ([22]; T47D cells): 165 RFU/cell | p95ErbB2 phosphorylation [24]: increased

Source: patent US9274116B2, “Drug selection for breast cancer therapy using antibody-based arrays” (NESTEC S.A., priority 2008, dated 2016)
